According to ChEMBL document CHEMBL4840349, “Macrocyclic Diterpenoid Constituents of Euphorbia deflexa, an Endemic Spurge from Greece” (J Nat Prod, 2021):
Active and inactive are the calls of the source. No cut-off for these calls is given here.

Assays:
Staphylococcus aureus = experiment: Antibacterial activity against Staphylococcus aureus DSM 20231 incubated for 20 hrs by MTT based double dilution method; format: functional, organism-based
HepG2 = experiment: Cytotoxicity against human HepG2 cells assessed as cell growth inhibition incubated for 68 hrs by MTT assay; format: functional, cell-based; details: HepG2, 68 h
SK-MEL-28 = experiment: Cytotoxicity against human SK-MEL-28 cells assessed as cell growth inhibition incubated for 68 hrs by MTT assay; format: functional, cell-based; details: SK-MEL-28, 68 h
Streptococcus pyogenes = experiment: Antibacterial activity against Streptococcus pyogenes DSM 20565-0316-001 incubated for 20 hrs by MTT based double dilution method; format: functional, organism-based
PC-3 = experiment: Cytotoxicity against human PC-3 cells assessed as cell growth inhibition incubated for 68 hrs by MTT assay; format: functional, cell-based; details: PC-3, 68 h
HeLa = experiment: Cytotoxicity against human HeLa cells assessed as cell growth inhibition incubated for 68 hrs by MTT assay; format: functional, cell-based

| Structure (SMILES) | Activity (Staphylococcus aureus) | IC50 (HepG2) | IC50 (SK-MEL-28) | Activity (Streptococcus pyogenes) | IC50 (PC-3) | IC50 (HeLa) |
| --- | --- | --- | --- | --- | --- | --- |
| C=C1[C@H](O)[C@H]2[C@@H](OC(=O)c3ccccc3)[C@](C)(OC(C)=O)[C@@H](OC(=O)c3ccccc3)[C@]2(O)[C@@H](O)[C@@H](C)/C=C/C(C)(C)[C@H](O)[C@H](OC(C)=O)[C@H]1OC(C)=O | inactive | > 10 µM | > 10 µM | inactive | > 10 µM | 9.9 µM |
| C/C=C(/C)C(=O)O[C@H]1C(C)=C[C@]23C(=O)[C@@H](C=C(C)[C@@H](O)[C@]12O)[C@H]1[C@@H](C[C@H]3C)C1(C)C |  | > 10 µM | > 10 µM |  | > 10 µM | > 10 µM |
| CC(=O)OCC(=O)O[C@@H]1[C@H]2[C@@H](OC(=O)c3ccccc3)[C@@H](C)C[C@]2(O)[C@H](O)[C@]2(O)[C@H](OC(C)=O)[C@@]1(OC(C)=O)C[C@H]1C(=O)C(C)(C)C[C@@H]12 |  | > 10 µM | > 10 µM |  | > 10 µM | > 10 µM |
| C=C1C(=O)O[C@@H]2C3O[C@]3(C)CC/C=C(\C)CC[C@@H]12 (some centres not stated) |  | 5.6 µM | 4.9 µM |  | > 10 µM | 2.1 µM |
| CC(=O)OC[C@@]12Cc3c(ccc(C)c3O)[C@]1(C)[C@@H](OC(C)=O)[C@@]1(O)C[C@@](C)(OC(C)=O)[C@H](OC(=O)c3ccccc3)[C@@H]1[C@H]2OC(C)=O |  |  | > 10 µM |  |  | > 10 µM |
| C/C=C(/C)C(=O)OC[C@@]1(C)[C@H]2[C@@H]3C=C(C)[C@@H](O)[C@]4(O)[C@@H](OC(=O)/C(C)=C\C)C(C)=C[C@@]4(C3=O)[C@H](C)C[C@]21OC(C)=O | inactive |  | > 10 µM | inactive |  | 9.8 µM |
| CC(=O)OC[C@@]12Cc3c(ccc(C)c3O)[C@]1(C)[C@@H](OC(C)=O)[C@]1(O)[C@H]([C@@H](OC(=O)c3ccccc3)[C@@H](C)[C@H]1OC(C)=O)[C@H]2OC(C)=O |  |  | > 10 µM |  |  | > 5.8 µM |
| C/C=C(/C)C(=O)O[C@@H]1C2[C@@H](OC(=O)c3ccccc3)[C@@H](C)C[C@]2(O)C(=O)[C@@](C)(O)[C@H]2CC(C)(C)C(=O)[C@]2(O)[C@H]2O[C@@]12COC(C)=O (some centres not stated) | inactive | > 10 µM | > 10 µM | inactive | > 10 µM | > 10 µM |
